# Where a name gives a salt, the structure may show the parent alone. Read-outs that look alike come from different tables or passages of the source.
# Key:
# Test in all cases: AK assay 384-well format, Prestwick library screening
# P. aeruginosa = format: cell-based, Pseudomonas aeruginosa; conditions: 50 μM final drug concentration; for fold induction at 50 µM: Pseudomonas aeruginosa, 3 h
# E. cloacae = format: cell-based, Enterobacter cloacae; conditions: 50 μM final drug concentration; for fold induction at 50 µM: Enterobacter cloacae, 3 h
# K. pneumoniae = format: cell-based, Klebsiella pneumoniae; conditions: 50 μM final drug concentration; for fold induction at 50 µM: Klebsiella pneumoniae, 3 h
# E. coli = format: cell-based, Escherichia coli; conditions: 50 μM final drug concentration; for fold induction at 50 µM: Escherichia coli, 3 h
# [1] = test system: S. aureus strain USA300-0114; format: cell-based, Staphylococcus aureus; conditions: 50 μM final drug concentration; for fold induction at 50 µM: Staphylococcus aureus, USA300, 3 h
# E. faecium = format: cell-based, Enterococcus faecium; conditions: 50 μM final drug concentration; for fold induction at 50 µM: Enterococcus faecium, 3 h
# [2] = test system: A. baumannii strain 98-37-09; format: cell-based, Acinetobacter baumannii; conditions: 50 μM final drug concentration; for fold induction at 50 µM: Acinetobacter baumannii, 983709, 3 h
# [3] = planktonic, cutoff for positive-scoring molecules 3-fold increase, read-out: AK-based Prestwick Library Screening Results, P. aeruginosa (fold increase in extracellular AK activity)
# [4] = planktonic, cutoff for positive-scoring molecules 3-fold increase, read-out: AK-based Prestwick Library Screening Results, E. cloacae (fold increase in extracellular AK activity)
# [5] = planktonic, cutoff for positive-scoring molecules 3-fold increase, read-out: AK-based Prestwick Library Screening Results, K. pneumoniae (fold increase in extracellular AK activity)
# [6] = planktonic, cutoff for positive-scoring molecules 3-fold increase, read-out: AK-based Prestwick Library Screening Results, E. coli (fold increase in extracellular AK activity)
# [7] = planktonic, cutoff for positive-scoring molecules 3-fold increase, read-out: AK-based Prestwick Library Screening Results, S. aureus (fold increase in extracellular AK activity)
# [8] = planktonic, cutoff for positive-scoring molecules 3-fold increase, read-out: AK-based Prestwick Library Screening Results, E. faecium (fold increase in extracellular AK activity)
# [9] = planktonic, cutoff for positive-scoring molecules 3-fold increase, read-out: AK-based Prestwick Library Screening Results, A. baumannii (fold increase in extracellular AK activity)
# [10] = 384-well format, cutoff for positive-scoring molecules 3-fold increase
compound,measurement,setting,value
CCCOc1ccccc1-c1nc2nn[nH]c2c(=O)[nH]1 [Zaprinast],fold induction at 50 µM,"P. aeruginosa; planktonic P. aeruginosa, cutoff for positive-scoring molecules 3-fold increase, read-out: AK-based Prestwick Library Screening Results, P. aeruginosa (increase in extracellular AK activity)",0.7
same,fold induction at 50 µM,"E. cloacae; planktonic E. cloacae, cutoff for positive-scoring molecules 3-fold increase, read-out: AK-based Prestwick Library Screening Results, E. cloacae (increase in extracellular AK activity)",0.8
same,fold induction at 50 µM,"K. pneumoniae; planktonic K. pneumoniae, cutoff for positive-scoring molecules 3-fold increase, read-out: AK-based Prestwick Library Screening Results, K. pneumoniae (increase in extracellular AK activity)",0.5
same,fold induction at 50 µM,"E. coli; planktonic E. coli, cutoff for positive-scoring molecules 3-fold increase, read-out: AK-based Prestwick Library Screening Results, E. coli (increase in extracellular AK activity)",0.7
same,fold induction at 50 µM,"[1]; planktonic S. aureus, cutoff for positive-scoring molecules 3-fold increase, read-out: AK-based Prestwick Library Screening Results, S. aureus (increase in extracellular AK activity)",0.6
same,fold induction at 50 µM,"E. faecium; planktonic E. faecium, cutoff for positive-scoring molecules 3-fold increase, read-out: AK-based Prestwick Library Screening Results, E. faecium (increase in extracellular AK activity)",1
same,fold induction at 50 µM,"[2]; planktonic A. baumannii, cutoff for positive-scoring molecules 3-fold increase, read-out: AK-based Prestwick Library Screening Results, A. baumannii (increase in extracellular AK activity)",0.6
NC(=NCc1ccccc1)NC(=O)c1nc(Cl)c(N)nc1N [Benzamil hydrochloride],fold induction at 50 µM,P. aeruginosa; [3],0.6
same,fold induction at 50 µM,E. cloacae; [4],0.7
same,fold induction at 50 µM,K. pneumoniae; [5],0.6
same,fold induction at 50 µM,E. coli; [6],0.6
same,fold induction at 50 µM,[1]; [7],0.7
same,fold induction at 50 µM,E. faecium; [8],1.1
same,fold induction at 50 µM,[2]; [9],0.6
CC(N)CCCC(C)(C)O (stereo not drawn) [Heptaminol hydrochloride],fold induction at 50 µM,"P. aeruginosa; 384-well format, cutoff for positive-scoring molecules 3-fold increase, read-out: AK-based Prestwick Library Screening Results, P. aeruginosa (increase in extracellular AK activity)",0.5
same,fold induction at 50 µM,"E. cloacae; 384-well format, cutoff for positive-scoring molecules 3-fold increase, read-out: AK-based Prestwick Library Screening Results, E. cloacae (increase in extracellular AK activity)",0.7
same,fold induction at 50 µM,"K. pneumoniae; 384-well format, cutoff for positive-scoring molecules 3-fold increase, read-out: AK-based Prestwick Library Screening Results, K. pneumoniae (increase in extracellular AK activity)",0.5
same,fold induction at 50 µM,"E. coli; 384-well format, cutoff for positive-scoring molecules 3-fold increase, read-out: AK-based Prestwick Library Screening Results, E. coli (increase in extracellular AK activity)",0.8
same,fold induction at 50 µM,"[1]; 384-well format, cutoff for positive-scoring molecules 3-fold increase, read-out: AK-based Prestwick Library Screening Results, S. aureus (increase in extracellular AK activity)",0.7
same,fold induction at 50 µM,"E. faecium; 384-well format, cutoff for positive-scoring molecules 3-fold increase, read-out: AK-based Prestwick Library Screening Results, E. faecium (increase in extracellular AK activity)",0.9
same,fold induction at 50 µM,"[2]; 384-well format, cutoff for positive-scoring molecules 3-fold increase, read-out: AK-based Prestwick Library Screening Results, A. baumannii (increase in extracellular AK activity)",0.6
CCCCC1(COC(=O)CCC(=O)O)C(=O)N(c2ccccc2)N(c2ccccc2)C1=O [Suxibuzone],fold induction at 50 µM,P. aeruginosa; [3],0.6
same,fold induction at 50 µM,E. cloacae; [4],0.8
same,fold induction at 50 µM,K. pneumoniae; [5],0.6
same,fold induction at 50 µM,E. coli; [6],0.6
same,fold induction at 50 µM,[1]; [7],0.6
same,fold induction at 50 µM,E. faecium; [8],0.9
same,fold induction at 50 µM,[2]; [9],0.8
Cc1nc2n(c(=O)c1CCN1CCC(c3noc4cc(F)ccc34)CC1)CCCC2 [Risperidone],fold induction at 50 µM,"P. aeruginosa; planktonic P. aeruginosa, […], read-out: AK-based Prestwick library screening result, P. aeruginosa (fold increase in extracellular AK activity)",1.1
same,fold induction at 50 µM,"E. cloacae; planktonic E. cloacae, […], read-out: AK-based Prestwick library screening result, E. cloacae (fold increase in extracellular AK activity)",1.3
same,fold induction at 50 µM,"K. pneumoniae; planktonic K. pneumoniae, […], read-out: AK-based Prestwick library screening result, K. pneumoniae (fold increase in extracellular AK activity)",1.1
same,fold induction at 50 µM,"E. coli; planktonic E. coli, […], read-out: AK-based Prestwick library screening result, E. coli (fold increase in extracellular AK activity)",1.1
same,fold induction at 50 µM,"[1]; planktonic S. aureus, […], read-out: AK-based Prestwick library screening result, S. aureus (fold increase in extracellular AK activity)",1.3
same,fold induction at 50 µM,"E. faecium; planktonic E. faecium, […], read-out: AK-based Prestwick library screening result, E. faecium (fold increase in extracellular AK activity)",1
same,fold induction at 50 µM,"[2]; planktonic A. baumannii, […], read-out: AK-based Prestwick library screening result, A. baumannii (fold increase in extracellular AK activity)",1.5
CCOc1ccc(NC(C)=O)cc1 [Phenacetin],fold induction at 50 µM,"P. aeruginosa; planktonic, cutoff for positive 3-fold increase, read-out: AK-based Prestwick Library Screening Results, P. aeruginosa (fold increase in extracellular AK activity)",0.9
same,fold induction at 50 µM,"E. cloacae; planktonic, cutoff for positive 3-fold increase, read-out: AK-based Prestwick Library Screening Results, E. cloacae (fold increase in extracellular AK activity)",1.4
same,fold induction at 50 µM,"K. pneumoniae; planktonic, cutoff for positive 3-fold increase, read-out: AK-based Prestwick Library Screening Results, K. pneumoniae (fold increase in extracellular AK activity)",0.9
same,fold induction at 50 µM,"E. coli; planktonic, cutoff for positive 3-fold increase, read-out: AK-based Prestwick Library Screening Results, E. coli (fold increase in extracellular AK activity)",1.2
same,fold induction at 50 µM,"[1]; planktonic, cutoff for positive 3-fold increase, read-out: AK-based Prestwick Library Screening Results, S. aureus (fold increase in extracellular AK activity)",0.8
same,fold induction at 50 µM,"E. faecium; planktonic, cutoff for positive 3-fold increase, read-out: AK-based Prestwick Library Screening Results, E. faecium (fold increase in extracellular AK activity)",0.9
same,fold induction at 50 µM,"[2]; planktonic, cutoff for positive 3-fold increase, read-out: AK-based Prestwick Library Screening Results, A. baumannii (fold increase in extracellular AK activity)",1.1
Cotinine (−),"AK-based Prestwick Library Screening Results, P. aeruginosa (increase in extracellular AK activity)",P. aeruginosa; [10],0.3
same,"AK-based Prestwick Library Screening Results, E. cloacae (increase in extracellular AK activity)",E. cloacae; [10],0.3
same,"AK-based Prestwick Library Screening Results, K. pneumoniae (increase in extracellular AK activity)",K. pneumoniae; [10],0.4
same,"AK-based Prestwick Library Screening Results, E. coli (increase in extracellular AK activity)","E. coli; 384-well format, […]",0.5
same,"AK-based Prestwick Library Screening Results, S. aureus (increase in extracellular AK activity)",[1]; [10],0.4
same,"AK-based Prestwick Library Screening Results, E. faecium (increase in extracellular AK activity)",E. faecium; [10],0.8
same,"AK-based Prestwick Library Screening Results, A. baumannii (increase in extracellular AK activity)",[2]; [10],0.3
CC[N+](C)(C)c1cccc(O)c1 [Edrophonium chloride],fold induction at 50 µM,"P. aeruginosa; 384-well format, […], read-out: AK-based Prestwick Library Screening Results, P. aeruginosa (increase in extracellular AK activity)",0.4
same,fold induction at 50 µM,"E. cloacae; 384-well format, […], read-out: AK-based Prestwick Library Screening Results, E. cloacae (increase in extracellular AK activity)",0.3
same,fold induction at 50 µM,"K. pneumoniae; 384-well format, […], read-out: AK-based Prestwick Library Screening Results, K. pneumoniae (increase in extracellular AK activity)",0.5
same,fold induction at 50 µM,"E. coli; 384-well format, […], read-out: AK-based Prestwick Library Screening Results, E. coli (increase in extracellular AK activity)",0.4
same,fold induction at 50 µM,"[1]; 384-well format, […], read-out: AK-based Prestwick Library Screening Results, S. aureus (increase in extracellular AK activity)",0.4
same,fold induction at 50 µM,"E. faecium; 384-well format, […], read-out: AK-based Prestwick Library Screening Results, E. faecium (increase in extracellular AK activity)",0.8
same,fold induction at 50 µM,"[2]; 384-well format, […], read-out: AK-based Prestwick Library Screening Results, A. baumannii (increase in extracellular AK activity)",0.4
CCCNC(C)C(=O)Nc1c(C)csc1C(=O)OC (stereo not drawn) [Articaine hydrochloride],fold induction at 50 µM,"P. aeruginosa; planktonic P. aeruginosa, positive cutoff 3-fold increase, read-out: AK-based Prestwick library screening result, P. aeruginosa (fold increase in extracellular AK activity)",1
same,fold induction at 50 µM,"E. cloacae; planktonic E. cloacae, positive cutoff 3-fold increase, read-out: AK-based Prestwick library screening result, E. cloacae (fold increase in extracellular AK activity)",1.6
same,fold induction at 50 µM,"K. pneumoniae; planktonic K. pneumoniae, positive cutoff 3-fold increase, read-out: AK-based Prestwick library screening result, K. pneumoniae (fold increase in extracellular AK activity)",1.1
same,fold induction at 50 µM,"E. coli; planktonic E. coli, positive cutoff 3-fold increase, read-out: AK-based Prestwick library screening result, E. coli (fold increase in extracellular AK activity)",1.1
same,fold induction at 50 µM,"[1]; planktonic S. aureus, positive cutoff 3-fold increase, read-out: AK-based Prestwick library screening result, S. aureus (fold increase in extracellular AK activity)",1.1
same,fold induction at 50 µM,"E. faecium; planktonic E. faecium, positive cutoff 3-fold increase, read-out: AK-based Prestwick library screening result, E. faecium (fold increase in extracellular AK activity)",1.2
same,fold induction at 50 µM,"[2]; planktonic A. baumannii, positive cutoff 3-fold increase, read-out: AK-based Prestwick library screening result, A. baumannii (fold increase in extracellular AK activity)",1.2

# Source: patent publication US10004701B2, “Methods and compositions for treating infection” (UNIVERSITY OF ROCHESTER, priority 2012, dated 2018)
